From US9115201B2 (priority 2008, dated 2015)

How the values were obtained:
Set-up in all cases: key: S, oseltamivir sensitive; R, oseltamivir resistant
[1] = target: NA of A/Vietnam/1203/04 (Influenza A virus, UniProt Q6DPL2); format: biochemical, influenza H5N1 A/Vietnam/1203/04
[2] = tested on: NA of A/Indonesia/05; format: biochemical, influenza H5N1 A/Indonesia/05
[3] = tested on: NA of A/New Caledonia/20/99; format: biochemical, influenza H1N1 A/New Caledonia/20/99
[4] = tested on: NA of A/duck/Hong Kong/380.5/01; format: biochemical, influenza H5N1 A/duck/Hong Kong/380.5/01
[5] = tested on: NA of A/Udorn/72; format: biochemical, influenza H3N2 A/Udorn/72
[6] = tested on: NA of A/Vietnam/HN/30408/05; format: biochemical, influenza H5N1 A/Vietnam/HN/30408/05
[7] = tested on: NA of A/Egypt-2/14724/NAMRU3/06; format: biochemical, influenza H5N1 A/Egypt-2/14724/NAMRU3/06
[8] = tested on: NA of A/Egypt/14725/NAMRU3/06; format: biochemical, influenza H5N1 A/Egypt/14725/NAMRU3/06
[9] = tested on: NA of A/Hong Kong/156/97; format: biochemical, influenza H5N1 A/Hong Kong/156/97

Measured: Oseltamivir sensitivity of the virus

NA of A/Vietnam/1203/04, sequence (Q6DPL2 whole entry, looked up): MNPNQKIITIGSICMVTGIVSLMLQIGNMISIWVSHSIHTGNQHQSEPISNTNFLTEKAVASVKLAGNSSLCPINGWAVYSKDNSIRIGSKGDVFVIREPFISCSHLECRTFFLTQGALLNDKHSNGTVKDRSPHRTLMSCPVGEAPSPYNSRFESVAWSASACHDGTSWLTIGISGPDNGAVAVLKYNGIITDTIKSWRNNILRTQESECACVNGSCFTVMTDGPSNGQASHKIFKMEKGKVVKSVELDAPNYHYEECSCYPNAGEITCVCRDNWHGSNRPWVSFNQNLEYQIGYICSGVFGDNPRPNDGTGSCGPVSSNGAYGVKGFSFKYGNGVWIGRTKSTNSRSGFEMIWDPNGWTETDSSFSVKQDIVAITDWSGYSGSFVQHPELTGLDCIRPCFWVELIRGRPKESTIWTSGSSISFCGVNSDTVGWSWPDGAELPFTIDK

CCOC(=O)C1=C[C@@H](OC(CC)CC)[C@H](NC(C)=O)[C@@H](N)C1 [Oseltamivir]
S: [1] | [2] | [3] | [9]
S^§: [5]
R: all other assays above
